This is an account of results in BindingDB's records for PubMed 8531090 (Roche Bioscience, 1995).

pKi: −log10 of the molar value. Positions of bridges follow the written chain, without caps; N, C: chain ends. Non-standard residues stand in square brackets, D forms with d. Residues, ends and D or L forms follow the SMILES beside them. Chains are numbered I, II in the order given. Dap = NC[C@H](N)C(=O)O

For the assay, the target named is T1, Neuropeptide Y receptor type 1 (Rattus norvegicus, UniProt P21555).
T1 sequence (P21555 whole entry): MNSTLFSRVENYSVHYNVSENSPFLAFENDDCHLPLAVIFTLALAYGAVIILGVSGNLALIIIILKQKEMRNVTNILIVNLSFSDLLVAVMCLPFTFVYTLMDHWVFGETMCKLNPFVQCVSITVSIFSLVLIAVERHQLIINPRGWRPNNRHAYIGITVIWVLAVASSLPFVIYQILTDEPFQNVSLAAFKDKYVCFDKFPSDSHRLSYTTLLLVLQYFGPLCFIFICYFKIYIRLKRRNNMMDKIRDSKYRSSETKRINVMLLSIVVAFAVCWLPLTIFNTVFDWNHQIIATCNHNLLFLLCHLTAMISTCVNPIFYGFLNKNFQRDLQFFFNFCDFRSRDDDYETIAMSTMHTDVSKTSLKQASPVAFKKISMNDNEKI

`CC[C@H](C)[C@H](N)C(=O)N[C@H]1CCC(=O)NC[C@@H](C(=O)N[C@@H](Cc2ccc(O)cc2)C(=O)N[C@@H](CCCN=C(N)N)C(=O)N[C@@H](CC(C)C)C(=O)N[C@@H](CCCN=C(N)N)C(=O)N[C@@H](Cc2ccc(O)cc2)C(N)=O)NC(=O)[C@@H]2CCCN2C(=O)[C@@H](NC(=O)[C@@H](N)[C@@H](C)CC)CCC(=O)NC[C@@H](C(=O)N[C@@H](Cc2ccc(O)cc2)C(=O)N[C@@H](CCCN=C(N)N)C(=O)N[C@@H](CC(C)C)C(=O)N[C@@H](CCCN=C(N)N)C(=O)N[C@@H](Cc2ccc(O)cc2)C(N)=O)NC(=O)[C@@H]2CCCN2C1=O` [1229U91] (I: H-IEP[Dap]YRLRY-NH2 / II: H-IEP[Dap]YRLRY-NH2; amide I:2-II:4, I:4-II:2) showed a pKi of 7.90.
